Measurements: article PMC9104013, “Role of Polyamine-Induced Dimerization of Antizyme in Its Cellular Functions” (International Journal of Molecular Sciences, 2022)
pKd: −log10 of the molar value.

Key:
mouse OAZ1 (mOAZ1) = biological target: T1, mouse OAZ1 (mOAZ1) (Mus musculus, UniProt P54369); assay: Isothermal titration calorimetry of polyamines binding to mOAZ1; details: for ΔH (enthalpy variation) / Ka (affinity constant): pH 7.5; for ΔH (enthalpy variation): SD did not exceed ±20%; for Ka (affinity constant): SD did not exceed ±25%; for Binding to mOAZ1: under the conditions used; for pKd: read-out: Kd (dissociation constant); for TΔS (entropy variation): calculated from TΔS = ΔH + RTlnKa
T1 construct: Full-length mOAZ1 protein was successfully produced in E. coli; made in house; host or cells: Escherichia coli Rosetta (DE3)
Method: For the precise isothermal titration calorimetry (ITC) experiments only freshly purified samples turned out to be suitable. The thermodynamic parameters of polyamines binding to OAZ1 were measured using a MicroCal iTC200 instrument (GE Healthcare, Chicago, IL, USA) as described elsewhere. Experiments were carried out at 31 °C in buffer containing 25 mM potassium phosphate, pH 7.5; 150 mM KCl; 25% (v/v) glycerol; 1 mM 2-mercaptoethanol; and 1 mM PMSF. Aliquots (2.5 μL) of ligands were injected into a 0.2 mL cell containing the protein solution to achieve a complete binding isotherm. Protein and ligand concentrations were 20 μM and 200 μM, respectively. The heat of dilution was measured by injection of the ligand into the buffer solution or by additional injections of ligand after saturation; the values obtained were subtracted from the heat of reaction to obtain the effective heat of binding. The resulting titration curves were fitted using the MicroCal Origin software, assuming one set of binding sites. Affinity constants (Ka) and enthalpy variations (ΔH) were determined, and the entropy variations (ΔS) were calculated from the equation: TΔS = ΔH + RTlnKa.

OAZ1 protein = system: OAZ1 protein; design: method as in PMID 11972449; details: HTC cells; cited from earlier work
[1] = biological target: T2, recombinant mOAZ1 protein (Mus musculus, UniProt P54369); assay: Electrophoresis of mOAZ1-Polyamine complex (0.01% SDS in running buffer); type: binding; details: 200 μM polyamine, 30 min, 20 °C, pH 7.5
T2 construct: Full-length mOAZ1 protein was successfully produced in E. coli; made in house; host or cells: Escherichia coli Rosetta (DE3)
Method: The recombinant mOAZ1 protein (1 μg/band) was incubated with 200 μM of a polyamine at room temperature for 30 min. Then the sample was quenched with a loading buffer (200 mM Tris-HCl, pH 6.8, 0.01% bromophenol blue, and 40% glycerol) and applied onto 12% polyacrylamide gel lacking SDS. Electrophoresis was carried out in a running buffer with decreased SDS concentration (25 mM Tris base; 250 mM glycine; and 0.01% SDS) at 70 V. The gel was stained with Coomassie R-250.

[2] = calculated as 1/Ka, no binding = not detected, Kd > 50 μM not detectable

T1 sequence (P54369 whole entry): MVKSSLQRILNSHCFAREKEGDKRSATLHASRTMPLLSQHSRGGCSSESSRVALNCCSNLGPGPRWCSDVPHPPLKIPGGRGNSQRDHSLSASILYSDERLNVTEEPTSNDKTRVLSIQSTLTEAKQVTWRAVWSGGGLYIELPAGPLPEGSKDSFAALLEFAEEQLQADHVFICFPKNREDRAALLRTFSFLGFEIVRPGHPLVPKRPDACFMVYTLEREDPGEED
T2 sequence (P54369 whole entry): as above

## CCNCCCNCCCNCCCNCC [DENSpm, N^1,N^11-diethylnorspermine]
Mouse OAZ1 (mOAZ1); ITC, 31 °C
  ΔH (enthalpy variation): -5.1 kcal/mol
  Ka (affinity constant): 750000 M⁻¹
Mouse OAZ1 (mOAZ1); ITC
  Binding to mOAZ1: bound to mOAZ1
Mouse OAZ1 (mOAZ1); [2]
  pKd: 5.89
Mouse OAZ1 (mOAZ1)
  TΔS (entropy variation): 3.0 kcal/mol

## NCCCCN [Put, putrescine]
Mouse OAZ1 (mOAZ1); ITC, 31 °C, pH 7.5, 150 mM KCl, 25% glycerol, protein 20 μM, ligand 200 μM
  Stoichiometry mOAZ1/Polyamine: No binding ^f
Mouse OAZ1 (mOAZ1); ITC, 31 °C
  ΔH (enthalpy variation): No binding ^f
  Ka (affinity constant): No binding ^f
Mouse OAZ1 (mOAZ1); ITC
  Binding to mOAZ1: did not
Mouse OAZ1 (mOAZ1); [2]
  Kd (dissociation constant): No binding ^f
Mouse OAZ1 (mOAZ1)
  TΔS (entropy variation): No binding ^f

## CCNCCCCNCCCCNCCCCNCCCCNC/C=C/CNCCCCNCCCCNCCCCNCCCCNCC [SL-11144]
OAZ1 protein
  Half-life of OAZ1 protein: did not increase the half-life of OAZ1 protein

## NCCCNCCCCNCCCN [Spm, spermine]
[1]
  Formation of (mOAZ1)2-Polyamine complex / dimerization: induce dimerization of OAZ1
OAZ1 protein
  Half-life of OAZ1 protein: did not increase the half-life of OAZ1 protein
Mouse OAZ1 (mOAZ1); ITC, 31 °C
  ΔH (enthalpy variation): -3.7 kcal/mol
  Ka (affinity constant): 920000 M⁻¹
Mouse OAZ1 (mOAZ1); ITC
  Binding to mOAZ1: bound to mOAZ1
Mouse OAZ1 (mOAZ1); [2]
  pKd: 5.96
Mouse OAZ1 (mOAZ1)
  TΔS (entropy variation): 4.5 kcal/mol
